Results reported in article PMC11078216, “Discovery of potent and selective activity-based probes (ABPs) for the deubiquitinating enzyme USP30” (RSC Chemical Biology, 2024).

Biological target: T1, RTN1 (Homo sapiens, UniProt Q16799)
T1 construct: endogenous in cells; host or cells: HEK293T
T1 sequence (Q16799 1-776): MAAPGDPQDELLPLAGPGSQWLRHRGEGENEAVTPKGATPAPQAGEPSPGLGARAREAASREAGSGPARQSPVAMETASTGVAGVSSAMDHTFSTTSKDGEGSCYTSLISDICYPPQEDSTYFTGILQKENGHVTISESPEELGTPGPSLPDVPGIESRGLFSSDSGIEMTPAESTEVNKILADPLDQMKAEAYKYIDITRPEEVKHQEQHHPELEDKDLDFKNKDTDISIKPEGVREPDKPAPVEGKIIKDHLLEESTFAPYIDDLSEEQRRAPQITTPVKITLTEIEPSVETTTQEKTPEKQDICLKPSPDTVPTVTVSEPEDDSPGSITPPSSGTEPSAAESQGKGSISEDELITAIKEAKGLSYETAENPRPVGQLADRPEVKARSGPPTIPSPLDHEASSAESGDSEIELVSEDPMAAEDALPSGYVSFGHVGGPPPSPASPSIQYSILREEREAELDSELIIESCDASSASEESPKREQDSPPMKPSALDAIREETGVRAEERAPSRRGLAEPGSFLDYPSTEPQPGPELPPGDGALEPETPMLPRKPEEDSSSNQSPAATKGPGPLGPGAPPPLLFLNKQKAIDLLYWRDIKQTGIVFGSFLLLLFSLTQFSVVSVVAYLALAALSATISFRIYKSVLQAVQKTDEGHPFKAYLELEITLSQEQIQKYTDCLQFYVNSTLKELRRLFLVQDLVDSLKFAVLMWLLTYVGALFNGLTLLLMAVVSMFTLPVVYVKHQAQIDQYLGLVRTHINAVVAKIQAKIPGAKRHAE
Assay: ABPP chemical proteomics (LC-MS/MS) in HEK293T cells
Assay type: cell-based
Procedure: To explore the selectivity of IMP-2587 and IMP-2586 across the whole proteome, we performed quantitative activity-based protein profiling (ABPP) in HEK293T cells following treatment with IMP-2587 or IMP-2586 (Fig. 3a). After ABP incubation, cells were lysed, and probe-labelled proteins were ligated to biotinylated capture reagents.[27] […] USP30 was outcompeted by corresponding parent inhibitors for each ABP (Fig. 5b and d and Tables S3 and S5, ESI ^†), confirming the high potency and rapid engagement of IMP-2587 and IMP-2586 in cells. […] DESI1 and DESI2 are small ubiquitin-related modifier (SUMO) proteases,[3,29–32] and IMP-2587 and IMP-2586 may offer a starting point for future development of DESI ABPs. […]
d) Live cell probe incubation, lysate click chemistry and precipitation 6-well HEK293T cells were incubated with media containing compounds ABP 2 and ABP 4 at indicated […]
The cells were washed with PBS and lysed with lysis buffer (50 μL (1% (v/v) Triton X-100, 0.1% (w/v) sodium dodecyl sulfate (SDS), EDTA-free complete protease inhibitor cocktail (1×, Roche) in PBS on ice for 10 min. The lysates were scraped and transferred to corresponding Lo-Bind Eppendorfs. Each lysate was sonicated for 1 minute, and the samples centrifuges at 5,000 x g at 4 °C for 5 minutes to pellet insoluble cellular debris. The supernatant was collected, and protein concentration was determined using the DC Protein Assay (Bio-Rad) as per manufacturer’s instructions, and normalised to lowest concentrated sample (e.g. 1 mg/mL, using lysis buffer). The following “click mixture” was prepared separately, preparing 6 μL for every 100 μL of […]
Capture reagent (AzRB/AzT for ABP 2, YnT/YnB for ABP 4 10 mM in DMSO, 1 vol; final concentration […]
CuSO4 (50 mM in water, 2 vol; final concentration in reaction 1 mM)
TCEP (50 mM in water, 2 vol; final concentration in reaction 1 mM)
TBTA (10 mM in DMSO, 1 vol; final concentration in reaction 100 µM)
The click mixture was vortexed and incubated at room temperature for 2 min before 6 μL of the mixture was added to every 100 μL of lysate. […]

SMILES: N#CN1CC[C@@H](NC(=O)c2cc(-c3ccccc3Oc3ccc(N=[N+]=[N-])cc3)n[nH]2)C1 [IMP-2586]
- Difference (log2 fold change of enrichment) (IMP-2586 labelling vs DMSO, 30 nM, 10 min, HEK293T (Table S4, Fig.5c)): 1.53

SMILES: C#Cc1cccc(-c2cc(NC(=O)CC3CCN(C#N)C3)on2)c1 (stereo not drawn) [IMP-2587]
- Difference (log2 fold change of enrichment) (IMP-2587 labelling vs DMSO, 30 nM, 10 min, HEK293T (Table S2, Fig.5a)): 1.77

SMILES: N#CN1CC[C@H](CC(=O)Nc2cc(-c3cccc(Cl)c3)no2)C1 [compound 1, reference compound]
- Difference (log2 fold change of enrichment) (compound 1 out-competition with IMP-2587 labelling, HEK293T (Table S3, Fig.5b)): -0.69
